In ChEMBL document CHEMBL1201862, “PubChem BioAssay data set” (2004):
The source made the active and inactive calls.

What was measured:
Vero [1] = assay: cells; assay type: functional, cell-based; details: Chlorocebus sabaeus
[2] = molecular target: Neuropeptide Y receptor type 2 (Homo sapiens, UniProt P49146); assay: Fluorescence-based counterscreen for agonists of NPY-Y1: cell-based high-throughput dose response assay for agonists of NPY-Y2.; assay type: functional
Vero [3] = assay: cells; assay type: functional; details: Chlorocebus sabaeus
HEK293 = assay: Fluorescence-based counterscreen for potentiators or agonists of NPY-Y1: cell-based high-throughput dose response assay for inhibitors of cyclic nucleotide gated ion channel (CNGC) activity. In this assay, the parental HEK293 cell line transfected with a cyclic-nucleotide gated ion channel (CNGC)-based cAMP sensor is used to measure inhibition of isoproterenol-induced CNGC …; assay type: functional; details: Homo sapiens
[4] = molecular target: T1, Long-chain-fatty-acid--AMP ligase FadD28 (Mycobacterium tuberculosis, UniProt P9WQ59); assay: Fluorescence polarization aasay to screen for inhibitors that compete for the binding of FadD28 to a bisubstrate Measured in Biochemical System Using Plate Reader - 2147-01_Inhibitor_Dose_CherryPick_Activity.; assay type: functional, Mycobacterium tuberculosis H37Rv
T1 sequence (P9WQ59 whole entry): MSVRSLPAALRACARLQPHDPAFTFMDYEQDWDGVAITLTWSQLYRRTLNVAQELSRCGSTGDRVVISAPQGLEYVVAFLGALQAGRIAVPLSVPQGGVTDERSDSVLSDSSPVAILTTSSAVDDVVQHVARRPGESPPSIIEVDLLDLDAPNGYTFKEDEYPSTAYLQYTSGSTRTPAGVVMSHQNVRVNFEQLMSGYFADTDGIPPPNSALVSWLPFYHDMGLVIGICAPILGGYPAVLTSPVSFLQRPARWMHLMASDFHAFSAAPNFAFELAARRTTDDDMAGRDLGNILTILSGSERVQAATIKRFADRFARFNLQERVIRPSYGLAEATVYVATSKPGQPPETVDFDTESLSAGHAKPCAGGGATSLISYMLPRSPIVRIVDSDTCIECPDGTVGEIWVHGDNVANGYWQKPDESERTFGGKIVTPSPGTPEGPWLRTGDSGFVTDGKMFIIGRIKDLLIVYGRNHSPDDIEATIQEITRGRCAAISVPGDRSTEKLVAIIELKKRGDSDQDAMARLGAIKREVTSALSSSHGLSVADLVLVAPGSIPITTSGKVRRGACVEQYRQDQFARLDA

[5] = HepG2 cell cytotoxicity, dose response, cytotoxicity control, ATP luminescence, cherry-pick, activator set 2 (AID 1053143); assay type: functional, cell-based
[6] = molecular target: Neuropeptide Y receptor type 1 (Homo sapiens, UniProt P25929); assay: Fluorescence-based dose response cell-based high-throughput screening assay for agonists of NPY-Y1. [Related pubchem assays: 1697 (Screening assay (NPY-Y1 agonists).), 1359 (Screening assay (NPY-Y2 potentiators or agonists).), 1304 (Screening assay (NPY-Y1 potentiators or agonists).), 1704 (Screening assay (CNGC inhibitors).), 1791 (Summary AID.)]; assay type: functional
Interleukin-8 = Interleukin-8 (Homo sapiens, UniProt P10145); assay: SAR analysis of tumor necrosis factor alpha (TNF-alpha) induced IL-8 secretion in MCF-7/NOD1 cells. [Related pubchem assays (depositor defined):AID1575, AID2250, AID2260]; assay type: functional, cell-based
Sequence of Interleukin-8 (P10145 whole entry): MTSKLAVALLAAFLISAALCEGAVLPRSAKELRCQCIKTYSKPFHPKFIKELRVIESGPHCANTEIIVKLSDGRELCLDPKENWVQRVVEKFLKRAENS

Sequence of Neuropeptide Y receptor type 2 (P49146 whole entry): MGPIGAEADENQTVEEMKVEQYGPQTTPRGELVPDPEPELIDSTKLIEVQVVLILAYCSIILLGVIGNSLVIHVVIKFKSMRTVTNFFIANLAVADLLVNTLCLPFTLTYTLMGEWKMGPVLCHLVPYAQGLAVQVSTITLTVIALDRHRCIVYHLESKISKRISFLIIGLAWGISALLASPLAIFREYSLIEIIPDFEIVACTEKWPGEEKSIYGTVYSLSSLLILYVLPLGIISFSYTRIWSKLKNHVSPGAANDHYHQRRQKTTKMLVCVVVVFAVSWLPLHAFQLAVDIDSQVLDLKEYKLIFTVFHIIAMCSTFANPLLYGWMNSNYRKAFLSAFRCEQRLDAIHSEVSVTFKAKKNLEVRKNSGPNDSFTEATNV
Sequence of Neuropeptide Y receptor type 1 (P25929 whole entry): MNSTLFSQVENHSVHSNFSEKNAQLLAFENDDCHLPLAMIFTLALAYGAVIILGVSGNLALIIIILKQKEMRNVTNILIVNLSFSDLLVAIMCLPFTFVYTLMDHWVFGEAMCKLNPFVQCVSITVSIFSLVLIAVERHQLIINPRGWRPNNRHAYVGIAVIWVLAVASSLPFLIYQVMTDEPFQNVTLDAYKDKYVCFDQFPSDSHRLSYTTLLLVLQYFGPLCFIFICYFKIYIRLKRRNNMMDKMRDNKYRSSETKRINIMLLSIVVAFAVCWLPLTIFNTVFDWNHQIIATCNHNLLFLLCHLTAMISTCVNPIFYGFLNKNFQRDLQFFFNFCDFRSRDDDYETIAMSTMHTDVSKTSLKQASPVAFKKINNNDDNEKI

| Compound | IC50 (Vero [1]) | EC50 [2] | CC50 (Vero [3]) | IC50 (HEK293) | AC50 [4] | AC50 [5] | EC50 [6] | IC50 (Interleukin-8) |
| --- | --- | --- | --- | --- | --- | --- | --- | --- |
| Cn1cc([N+](=O)[O-])c(C(=O)Nc2ccc(C3CCCCC3)cc2)n1 | 9.92 µM (active) | 12.1 µM (not active) | > 25 µM (active) | 8.17 µM (active) | > 100 µM (inactive) | 18.5 µM (active) | 9.71 µM (active) |  |
| COc1ccc(S(=O)(=O)n2c(N)nc3ccccc32)cc1 |  |  |  |  |  |  |  | > 5 µM (inactive) |
